# Test system: 266295-075-R-J1-PDC spheroid viability
# Assay: Anticancer human tumor 266295-075-R-J1-PDC patient-derived head and neck squamous carcinoma cell line growth inhibition [POLQ]
# Conditions: spheroids with HUVEC and MSC; for IC50: curve of first compound; for viability, T/C: stronger effect = lower value
# Method in brief: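 Growth inhibition in 3D: complex spheroids (tumor PDC, HUVEC, MSC) treated with POLQ inhibitor combinations; where Cmax unknown, highest tested concentration 10 microM, except SN-38 at 1 microM.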
# [1] = second compound 0.0316 µM, first compound 0.00316 µM
# [2] = second compound 0.0316 µM, first compound 0.01 µM
# [3] = second compound 0.0316 µM, first compound 0.0316 µM
# [4] = second compound 0.0316 µM, first compound 0.1 µM
# [5] = second compound 0.0316 µM, first compound 0.316 µM
# [6] = second compound 0.0316 µM, first compound 1 µM
# [7] = second compound 0.1 µM, first compound 0.00316 µM
# [8] = second compound 0.1 µM, first compound 0.01 µM
# [9] = second compound 0.1 µM, first compound 0.0316 µM
# [10] = second compound 0.1 µM, first compound 0.1 µM
# [11] = second compound 0.1 µM, first compound 0.316 µM
# [12] = second compound 0.1 µM, first compound 1 µM
# [13] = second compound 0.316 µM, first compound 0.00316 µM
# [14] = second compound 0.316 µM, first compound 0.01 µM
# [15] = second compound 0.316 µM, first compound 0.0316 µM
# [16] = second compound 0.316 µM, first compound 0.1 µM
# [17] = second compound 0.316 µM, first compound 0.316 µM
# [18] = second compound 0.316 µM, first compound 1 µM
# [19] = second compound 1 µM, first compound 0.00316 µM
# [20] = second compound 1 µM, first compound 0.01 µM
# [21] = second compound 1 µM, first compound 0.0316 µM
# [22] = second compound 1 µM, first compound 0.1 µM
# [23] = second compound 1 µM, first compound 0.316 µM
# [24] = second compound 1 µM, first compound 1 µM
# [25] = second compound 3.16 µM, first compound 0.00316 µM
# [26] = second compound 3.16 µM, first compound 0.01 µM
# [27] = second compound 3.16 µM, first compound 0.0316 µM
# [28] = second compound 3.16 µM, first compound 0.1 µM
# [29] = second compound 3.16 µM, first compound 0.316 µM
# [30] = second compound 3.16 µM, first compound 1 µM
# [31] = second compound 10 µM, first compound 0.00316 µM
# [32] = second compound 10 µM, first compound 0.01 µM
# [33] = second compound 10 µM, first compound 0.0316 µM
# [34] = second compound 10 µM, first compound 0.1 µM
# [35] = second compound 10 µM, first compound 0.316 µM
# [36] = second compound 10 µM, first compound 1 µM
# [37] = second compound 0.0316 µM, first compound 3.16 µM
# [38] = second compound 0.0316 µM, first compound 10 µM
# [39] = second compound 0.1 µM, first compound 3.16 µM
# [40] = second compound 0.1 µM, first compound 10 µM
# [41] = second compound 0.316 µM, first compound 3.16 µM
# [42] = second compound 0.316 µM, first compound 10 µM
# [43] = second compound 1 µM, first compound 3.16 µM
# [44] = second compound 1 µM, first compound 10 µM
# [45] = second compound 3.16 µM, first compound 3.16 µM
# [46] = second compound 3.16 µM, first compound 10 µM
# [47] = second compound 10 µM, first compound 3.16 µM
# [48] = second compound 10 µM, first compound 10 µM
# 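Note: spheroids exposed to compounds for seven days before readout.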
smiles,measurement,setting,value
C=CCn1c(=O)c2cnc(Nc3ccc(N4CCN(C)CC4)cc3)nc2n1-c1cccc(C(C)(C)O)n1 + Cc1cccc(N(C)C(=O)C2C(O)CCN2c2nc(C)cc(C(F)(F)F)c2C#N)c1,IC50,second compound 0.0316 µM,> 1 µM
same,IC50,second compound 0.1 µM,> 1 µM
same,IC50,second compound 0.316 µM,> 1 µM
same,IC50,second compound 1 µM,> 1 µM
same,IC50,second compound 3.16 µM,> 1 µM
same,IC50,second compound 10 µM,> 1 µM
same,"viability, T/C",[1],97.4%
same,"viability, T/C",[2],97.7%
same,"viability, T/C",[3],112%
same,"viability, T/C",[4],101%
same,"viability, T/C",[5],80%
same,"viability, T/C",[6],62.5%
same,"viability, T/C",[7],101%
same,"viability, T/C",[8],115%
same,"viability, T/C",[9],111%
same,"viability, T/C",[10],127%
same,"viability, T/C",[11],79.4%
same,"viability, T/C",[12],63%
same,"viability, T/C",[13],119%
same,"viability, T/C",[14],116%
same,"viability, T/C",[15],99.7%
same,"viability, T/C",[16],131%
same,"viability, T/C",[17],81.7%
same,"viability, T/C",[18],64.7%
same,"viability, T/C",[19],114%
same,"viability, T/C",[20],104%
same,"viability, T/C",[21],119%
same,"viability, T/C",[22],78.4%
same,"viability, T/C",[23],77.4%
same,"viability, T/C",[24],63.6%
same,"viability, T/C",[25],118%
same,"viability, T/C",[26],93.6%
same,"viability, T/C",[27],91.6%
same,"viability, T/C",[28],116%
same,"viability, T/C",[29],68.8%
same,"viability, T/C",[30],71.5%
same,"viability, T/C",[31],137%
same,"viability, T/C",[32],117%
same,"viability, T/C",[33],102%
same,"viability, T/C",[34],128%
same,"viability, T/C",[35],87.7%
same,"viability, T/C",[36],81.8%
CCc1c2c(nc3ccc(O)cc13)-c1cc3c(c(=O)n1C2)COC(=O)[C@]3(O)CC + Cc1cccc(N(C)C(=O)C2C(O)CCN2c2nc(C)cc(C(F)(F)F)c2C#N)c1,IC50,second compound 0.0316 µM,> 1 µM
same,IC50,second compound 0.1 µM,> 1 µM
same,IC50,second compound 0.316 µM,> 1 µM
same,IC50,second compound 1 µM,> 1 µM
same,IC50,second compound 3.16 µM,> 1 µM
same,IC50,second compound 10 µM,> 1 µM
same,"viability, T/C",[1],90.2%
same,"viability, T/C",[2],81.4%
same,"viability, T/C",[3],80.4%
same,"viability, T/C",[4],85.8%
same,"viability, T/C",[5],113%
same,"viability, T/C",[6],76.7%
same,"viability, T/C",[7],90.3%
same,"viability, T/C",[8],78.5%
same,"viability, T/C",[9],90.4%
same,"viability, T/C",[10],81.9%
same,"viability, T/C",[11],110%
same,"viability, T/C",[12],72.9%
same,"viability, T/C",[13],85.8%
same,"viability, T/C",[14],84.1%
same,"viability, T/C",[15],87.2%
same,"viability, T/C",[16],87%
same,"viability, T/C",[17],92.5%
same,"viability, T/C",[18],75.1%
same,"viability, T/C",[19],91.5%
same,"viability, T/C",[20],86.7%
same,"viability, T/C",[21],77%
same,"viability, T/C",[22],84.3%
same,"viability, T/C",[23],92.7%
same,"viability, T/C",[24],75.5%
same,"viability, T/C",[25],78.5%
same,"viability, T/C",[26],74.1%
same,"viability, T/C",[27],79.9%
same,"viability, T/C",[28],89%
same,"viability, T/C",[29],107%
same,"viability, T/C",[30],75.2%
same,"viability, T/C",[31],92.8%
same,"viability, T/C",[32],92%
same,"viability, T/C",[33],82.9%
same,"viability, T/C",[34],85.7%
same,"viability, T/C",[35],87.8%
same,"viability, T/C",[36],55.6%
Nc1ccn(C2OC(CO)C(O)C2(F)F)c(=O)n1 (stereo not drawn) + Cc1cccc(N(C)C(=O)C2C(O)CCN2c2nc(C)cc(C(F)(F)F)c2C#N)c1,IC50,second compound 0.0316 µM,> 10 µM
same,IC50,second compound 0.1 µM,> 10 µM
same,IC50,second compound 0.316 µM,> 10 µM
same,IC50,second compound 1 µM,> 10 µM
same,IC50,second compound 3.16 µM,> 10 µM
same,IC50,second compound 10 µM,> 10 µM
same,"viability, T/C",[3],93.5%
same,"viability, T/C",[4],81.9%
same,"viability, T/C",[5],81.5%
same,"viability, T/C",[6],68.3%
same,"viability, T/C",[37],79.5%
same,"viability, T/C",[38],69.4%
same,"viability, T/C",[9],85.8%
same,"viability, T/C",[10],93%
same,"viability, T/C",[11],79.6%
same,"viability, T/C",[12],76%
same,"viability, T/C",[39],83.3%
same,"viability, T/C",[40],73.7%
same,"viability, T/C",[15],87.8%
same,"viability, T/C",[16],78.5%
same,"viability, T/C",[17],77%
same,"viability, T/C",[18],94.9%
same,"viability, T/C",[41],76.6%
same,"viability, T/C",[42],72.4%
same,"viability, T/C",[21],99.8%
same,"viability, T/C",[22],82.8%
same,"viability, T/C",[23],86%
same,"viability, T/C",[24],84.7%
same,"viability, T/C",[43],80.8%
same,"viability, T/C",[44],80.2%
same,"viability, T/C",[27],90.6%
same,"viability, T/C",[28],96.9%
same,"viability, T/C",[29],72.8%
same,"viability, T/C",[30],78.1%
same,"viability, T/C",[45],91%
same,"viability, T/C",[46],67.1%
same,"viability, T/C",[33],86.8%
same,"viability, T/C",[34],88.4%
same,"viability, T/C",[35],72%
same,"viability, T/C",[36],75.1%
same,"viability, T/C",[47],82.1%
same,"viability, T/C",[48],68.2%
O=C(c1cc(Cc2n[nH]c(=O)c3ccccc23)ccc1F)N1CCN(C(=O)C2CC2)CC1 + Cc1cccc(N(C)C(=O)C2C(O)CCN2c2nc(C)cc(C(F)(F)F)c2C#N)c1,IC50,second compound 0.0316 µM,> 10 µM
same,IC50,second compound 0.1 µM,> 10 µM
same,IC50,second compound 0.316 µM,> 10 µM
same,IC50,second compound 1 µM,> 10 µM
same,IC50,second compound 3.16 µM,> 10 µM
same,IC50,second compound 10 µM,> 10 µM
same,"viability, T/C",[3],91%
same,"viability, T/C",[4],104%
same,"viability, T/C",[5],80.3%
same,"viability, T/C",[6],85.6%
same,"viability, T/C",[37],93.2%
same,"viability, T/C",[38],104%
same,"viability, T/C",[9],95.5%
same,"viability, T/C",[10],103%
same,"viability, T/C",[11],91.4%
same,"viability, T/C",[12],89.6%
same,"viability, T/C",[39],99.3%
same,"viability, T/C",[40],78%
same,"viability, T/C",[15],86.6%
same,"viability, T/C",[16],86.5%
same,"viability, T/C",[17],91.7%
same,"viability, T/C",[18],91.4%
same,"viability, T/C",[41],107%
same,"viability, T/C",[42],75.3%
same,"viability, T/C",[21],121%
same,"viability, T/C",[22],110%
same,"viability, T/C",[23],89.5%
same,"viability, T/C",[24],92.1%
same,"viability, T/C",[43],82.5%
same,"viability, T/C",[44],85.9%
same,"viability, T/C",[27],92.8%
same,"viability, T/C",[28],97.1%
same,"viability, T/C",[29],93.5%
same,"viability, T/C",[30],110%
same,"viability, T/C",[45],121%
same,"viability, T/C",[46],89%
same,"viability, T/C",[33],101%
same,"viability, T/C",[34],99%
same,"viability, T/C",[35],95.1%
same,"viability, T/C",[36],107%
same,"viability, T/C",[47],115%
same,"viability, T/C",[48],94.6%

# Reference: PubChem BioAssay AID1963853 (Molecular Pharmacology Branch, DTP, NCI, 2024)
